Source: patent US20020103117A1, “Use of protein kinase-inhibitor-alpha” (priority 2000, published 2002)

How the values were obtained:
functioning rat heart = assay: Action of PKI-alpha on an isolated, perfused functioning rat heart; parameters: species or system Sprague Dawley rats
Method: Hearts from a total of six Sprague Dawley rats with a weight of about 300 g were isolated and perfused as described in Schulze et al. (Schulze et al.; Circulation 1990: 959-69). The hemodynamic parameters including contractility, external heart work (EHW), coronary and aortic flow were recorded about 15 minutes after antegrade perfusion. Cell-permeable, recombinant PKI-alpha (amino acids 14 to 22, Calbiochem #476485) was then administered. The compound was infused directly into the atrium canula using a motor pump. The infusion rate was continuously adapted to the emission volume (the sum of the aortic and coronary flow) and increased in five-minute intervals to reach the final PKI-alpha concentrations in the perfusate of 0.5, 1.0 and 2.0 μmol/l.

protein kinase-A = assay: Activity of protein kinase-A in cell cultures of myocytes; assay type: cell-based; conditions: cell cultures of myocytes (e.g., C9H2 cells)
Method: The protein-kinase-inhibitor alpha shortened to amino acids 14 to 22 was added to the cell cultures of myocytes (e.g., C9H2 cells, available from the American Type Culture Collection), and the activity of protein kinase-A was determined.
The 9-amino-acid-long PKI-alpha inhibitor (the gene product of the second open reader frame of the PKI gene in humans and in pigs) was added to the cell cultures of myocytes, and the expression of the PKI-alpha and the activity of protein kinase-A were determined.

[1] = PKI-alpha in perfusate 0.5, 1.0 and 2.0 μmol/l

shortened PKI-alpha: Cell-permeable, recombinant PKI-alpha comprising only amino acids 14 to 22 of the complete sequence, Calbiochem #476485
decrease of the left ventricular function, expressed as dp/dt-max (functioning rat heart; [1]): 53% | reduction of the external heart work (functioning rat heart; [1]): 43% | depression of the myocardial function (functioning rat heart; infusion up to 2 μmol): pronounced, reversible, concentration-dependent (up to 2 μmol) depression of the myocardial function | activity of protein kinase-A (protein kinase-A): dose-dependent reduction of activity
